Entries after “also recorded” stand apart in the source; their conditions may differ.
Key:
[1] = tested on: human umbilical vein endothelial cells; parameters: method as in printed; conditions: human umbilical vein endothelial cells in vitro; background statement, ref not given; cited from earlier work
[2] = Phase I dose escalation: study drug-related adverse events (NCI CTC v2.0), DLT, MTD; assay type: in vivo
Procedure: Administration of telatinib was continued until an unacceptable toxicity, disease progression or death occurred or the consent was withdrawn. At start of the study, only a solution formulation was available. The formulation as tablet was introduced into the study after first pharmacokinetic results became available. Based on pharmacokinetic data, OD, two times daily (BID), and three times daily schedules were evaluated.
Three patients were initially enroled at each dose level. […] If any patient experienced a DLT, three additional patients were enroled at that dose level. If at least two out of six patients experienced a DLT, dose escalation had to be stopped and that dose was to be declared the toxic dose. The next lower dose level was defined as the MTD. […] In the course of the study the protocol was amended so that the onset of CTC grade 3 hypertension was only considered to be a DLT if the hypertension turned out to be refractory to standard antihypertensive treatment.
Adverse events were assessed at the end of each cycle and graded according to the National Cancer Institute Common Toxicity Criteria (NCI CTC), v2.0 ([Trotti et al, 2000]).
History, physical examinations, haematological and biochemical laboratory evaluations were performed at screening, on days 1, 7 and 14 of cycle 1 and on day 1 of subsequent cycles. Baseline objective tumour measurements were performed within 4 weeks prior to study treatment. Lesions at all disease sites were categorised as either measurable or nonmeasurable. Indicator lesions were selected and monitored throughout the study by the same assessor and using the same technique. Tumour response was evaluated according to the RECIST ([Therasse et al, 2000]).

[3] = tested on: VEGFR-2; parameters: method as in printed; conditions: biochemical assay; background statement, ref not given; cited from earlier work
[4] = tested on: tumour blood flow/tumour vessel permeability; assay: DCE-MRI of tumour blood flow/tumour vessel permeability; assay type: in vivo, human
Procedure: The effects of telatinib treatment on the plasma concentrations of sVEGFR-2, VEGF and bFGF were determined from blood samples taken at baseline, on day 14 of cycles 1, 2, 4, 6, etc. and at the final visit. Samples were analysed using the relevant quantitative enzyme-linked immunosorbent assay (ELISA) (R&D Systems Europe, Oxford, UK) according to the manufacturer's instructions. DCE-MRI was performed at baseline, on day 2 (only cycle 1), and on day 14 of cycles 1–3 to assess tumour blood flow/tumour vessel permeability in a subgroup of patients ([Morgan et al, 2003]).
To assess the biological activity of telatinib, plasma concentration analyses for the angiogenic markers VEGF, sVEGFR-2, bFGF, PDGF and […] were performed at baseline and during the course of the study. Furthermore, DCE-MRI measurements were done at baseline, on days 2 and 14 of cycle 1 and on day 14 of cycles 2 and 3. Evaluable DCE-MRI results were available for a subgroup of patients treated at dose levels of 300 mg BID or higher.

[5] = tested on: PDGFR-β; parameters: method as in printed; conditions: biochemical assay; background statement, ref not given; cited from earlier work
[6] = continuous dosing 600 mg BID (N=7)
[7] = continuous dosing 900 mg BID (N=6)
[8] = continuous dosing 1200 mg BID (N=7)
[9] = continuous dosing 1500 mg BID (N=6)
[10] = noncontinuous dosing 600 mg BID (N=6)
[11] = noncontinuous dosing 900 mg BID (N=6)
[12] = noncontinuous dosing 1500 mg BID (N=6)
[13] = noncontinuous dosing 75–300 mg BID (N=27)

What does the source list for `CNC(=O)c1cc(COc2nnc(Nc3ccc(Cl)cc3)c3ccoc23)ccn1` [telatinib]?
VEGF-dependent proliferation [1]: inhibited; Patients with hypertension resulting in dose reduction and dose interruption ([2]; 300 mg BID, 1500 mg BID noncontinuous and 1200 mg BID continuous dosing): three; Patients with dose-limiting toxicities ([2]; 1500 mg BID continuous dosing, first 21 days of treatment): no patient out of six patients; also recorded: none of the six patients; Patients with dose-limiting toxicities ([2]; 1500 mg BID noncontinuous dosing, grade 3 hypertension refractory to standard treatment): one out of six patients; Incidence of patients with study drug-related adverse events, worst CTC grade 3: Abdominal pain or cramping ([2]; Total, all patients N=71): 2 (3) N(%); Incidence of patients with study drug-related adverse events, worst CTC grade 3: Any event ([2]; Total, all patients N=71): 18 (25) N(%); Incidence of patients with study drug-related adverse events, worst CTC grade 3: Dehydration ([2]; Total, all patients N=71): 1 (1) N(%); Incidence of patients with study drug-related adverse events, worst CTC grade 3: Diarrhoea, patients with colostomy ([2]; Total, all patients N=71): 1 (1) N(%); Incidence of patients with study drug-related adverse events, worst CTC grade 3: Diarrhoea, patients without colostomy ([2]; Total, all patients N=71): 4 (6) N(%); Incidence of patients with study drug-related adverse events, worst CTC grade 3: Hand–foot skin reaction ([2]; Total, all patients N=71): 1 (1) N(%); Incidence of patients with study drug-related adverse events, worst CTC grade 3: Hypertension ([2]; Total, all patients N=71): 16 (23) N(%); Incidence of patients with study drug-related adverse events, worst CTC grade 3: Rash/desquamation ([2]; Total, all patients N=71): 1 (1) N(%); Incidence of patients with study drug-related adverse events, worst CTC grades 1–2: Alopecia ([2]; Total, all patients N=71): 2 (3) N(%); Incidence of patients with study drug-related adverse events, worst CTC grades 1–2: Anorexia ([2]; Total, all patients N=71): 5 (7) N(%); Incidence of patients with study drug-related adverse events, worst CTC grades 1–2: Any event ([2]; Total, all patients N=71): 15 (21) N(%); Incidence of patients with study drug-related adverse events, worst CTC grades 1–2: Diarrhoea, patients without colostomy ([2]; Total, all patients N=71): 4 (6) N(%); Incidence of patients with study drug-related adverse events, worst CTC grades 1–2: Fatigue ([2]; Total, all patients N=71): 2 (3) N(%); Incidence of patients with study drug-related adverse events, worst CTC grades 1–2: Flatulence ([2]; Total, all patients N=71): 2 (3) N(%); Incidence of patients with study drug-related adverse events, worst CTC grades 1–2: Hypertension ([2]; Total, all patients N=71): 3 (4) N(%); Incidence of patients with study drug-related adverse events, worst CTC grades 1–2: Nausea ([2]; Total, all patients N=71): 3 (4) N(%); Incidence of patients with study drug-related adverse events, worst CTC grades 1–2: Voice changes/stridor/larynx ([2]; Total, all patients N=71): 5 (7) N(%); Incidence of patients with study drug-related adverse events, worst CTC grades 1–2: Vomiting ([2]; Total, all patients N=71): 2 (3) N(%); Patients dose reduced or discontinued permanently due to drug-related adverse events ([2]; all patients): nine out of 71; Hypertension, study drug-related, CTC grade 3 ([2]; all patients N=71): 23%; Hypertension, study drug-related, worst CTC grade 1–2 ([2]; all patients N=71): 4%; Patients with at least one study drug-related adverse event, worst CTC grade 1–2 ([2]; all patients N=71): 21%; Patients with at least one study drug-related adverse event, worst CTC grade 3 ([2]; all patients N=71): 25%; Study drug-related adverse events of CTC grades 4 or 5 ([2]; all patients N=71): no study drug-related adverse events of CTC grades 4 or 5; Diarrhoea, study drug-related, CTC grade 3 ([2]; all patients N=71 (with and without colostomy)): 7%; Patients with serious study drug-related adverse events ([2]; all patients, diarrhoea, hypertension, hand–foot skin reaction and dehydration): five; Incidence of patients with study drug-related adverse events, worst CTC grades 1–2: Any event [2, 6]: 1 (14) N(%); Incidence of patients with study drug-related adverse events, worst CTC grades 1–2: Diarrhoea, patients without colostomy [2, 6]: 1 (14) N(%); Incidence of patients with study drug-related adverse events, worst CTC grade 3: Any event [2, 7]: 3 (50) N(%); Incidence of patients with study drug-related adverse events, worst CTC grade 3: Dehydration [2, 7]: 1 (17) N(%); Incidence of patients with study drug-related adverse events, worst CTC grade 3: Diarrhoea, patients with colostomy [2, 7]: 1 (17) N(%); Incidence of patients with study drug-related adverse events, worst CTC grade 3: Diarrhoea, patients without colostomy [2, 7]: 1 (17) N(%); Incidence of patients with study drug-related adverse events, worst CTC grade 3: Hand–foot skin reaction [2, 7]: 1 (17) N(%); Incidence of patients with study drug-related adverse events, worst CTC grade 3: Hypertension [2, 7]: 2 (33) N(%); Incidence of patients with study drug-related adverse events, worst CTC grade 3: Rash/desquamation [2, 7]: 1 (17) N(%); Incidence of patients with study drug-related adverse events, worst CTC grades 1–2: Alopecia [2, 7]: 1 (17) N(%); Incidence of patients with study drug-related adverse events, worst CTC grades 1–2: Any event [2, 7]: 2 (33) N(%); Incidence of patients with study drug-related adverse events, worst CTC grades 1–2: Nausea [2, 7]: 1 (17) N(%); Incidence of patients with study drug-related adverse events, worst CTC grades 1–2: Voice changes/stridor/larynx [2, 7]: 1 (17) N(%); Incidence of patients with study drug-related adverse events, worst CTC grade 3: Abdominal pain or cramping [2, 8]: 1 (14) N(%); Incidence of patients with study drug-related adverse events, worst CTC grade 3: Any event [2, 8]: 5 (71) N(%); Incidence of patients with study drug-related adverse events, worst CTC grade 3: Diarrhoea, patients without colostomy [2, 8]: 2 (29) N(%); Incidence of patients with study drug-related adverse events, worst CTC grade 3: Hypertension [2, 8]: 5 (71) N(%); Incidence of patients with study drug-related adverse events, worst CTC grades 1–2: Any event [2, 8]: 1 (14) N(%); Incidence of patients with study drug-related adverse events, worst CTC grades 1–2: Flatulence [2, 8]: 1 (14) N(%); Incidence of patients with study drug-related adverse events, worst CTC grades 1–2: Any event [2, 9]: 2 (33) N(%); Incidence of patients with study drug-related adverse events, worst CTC grades 1–2: Diarrhoea, patients without colostomy [2, 9]: 2 (33) N(%); Incidence of patients with study drug-related adverse events, worst CTC grades 1–2: Flatulence [2, 9]: 1 (17) N(%); Incidence of patients with study drug-related adverse events, worst CTC grades 1–2: Hypertension [2, 9]: 1 (17) N(%); Incidence of patients with study drug-related adverse events, worst CTC grades 1–2: Nausea [2, 9]: 1 (17) N(%); Incidence of patients with study drug-related adverse events, worst CTC grades 1–2: Vomiting [2, 9]: 1 (17) N(%); Maximum-tolerated dose (MTD) ([2]; continuous dosing, MTD not reached up to highest dose): > 1500 mg BID; diastolic blood pressure, change from baseline ([2]; cycle 1, day 14 vs baseline): increase; Patients with diarrhoea leading to dose reduction or interruption ([2]; dose levels of 900 mg BID or higher): four; Patients with dose-limiting toxicities ([2]; grade 3 hypertension refractory to standard treatment, at 300 and 1500 mg BID noncontinuous dosing): two; Maximum-tolerated dose (MTD) ([2]; human, in vivo): > 1500 mg BID; Incidence of patients with study drug-related adverse events, worst CTC grade 3: Any event [2, 10]: 3 (50) N(%); Incidence of patients with study drug-related adverse events, worst CTC grade 3: Hypertension [2, 10]: 3 (50) N(%); Incidence of patients with study drug-related adverse events, worst CTC grades 1–2: Anorexia [2, 10]: 1 (17) N(%); Incidence of patients with study drug-related adverse events, worst CTC grades 1–2: Any event [2, 10]: 2 (33) N(%); Incidence of patients with study drug-related adverse events, worst CTC grades 1–2: Fatigue [2, 10]: 2 (33) N(%); Incidence of patients with study drug-related adverse events, worst CTC grades 1–2: Voice changes/stridor/larynx [2, 10]: 2 (33) N(%); Incidence of patients with study drug-related adverse events, worst CTC grade 3: Any event [2, 11]: 2 (33) N(%); Incidence of patients with study drug-related adverse events, worst CTC grade 3: Hypertension [2, 11]: 2 (33) N(%); Incidence of patients with study drug-related adverse events, worst CTC grades 1–2: Anorexia [2, 11]: 1 (17) N(%); Incidence of patients with study drug-related adverse events, worst CTC grades 1–2: Any event [2, 11]: 3 (50) N(%); Incidence of patients with study drug-related adverse events, worst CTC grades 1–2: Hypertension [2, 11]: 1 (17) N(%); Incidence of patients with study drug-related adverse events, worst CTC grades 1–2: Voice changes/stridor/larynx [2, 11]: 2 (33) N(%); Incidence of patients with study drug-related adverse events, worst CTC grade 3: Abdominal pain or cramping [2, 12]: 1 (17) N(%); Incidence of patients with study drug-related adverse events, worst CTC grade 3: Any event [2, 12]: 4 (67) N(%); Incidence of patients with study drug-related adverse events, worst CTC grade 3: Diarrhoea, patients without colostomy [2, 12]: 1 (17) N(%); Incidence of patients with study drug-related adverse events, worst CTC grade 3: Hypertension [2, 12]: 3 (50) N(%); Incidence of patients with study drug-related adverse events, worst CTC grades 1–2: Anorexia [2, 12]: 2 (33) N(%); Incidence of patients with study drug-related adverse events, worst CTC grades 1–2: Any event [2, 12]: 2 (33) N(%); Incidence of patients with study drug-related adverse events, worst CTC grades 1–2: Diarrhoea, patients without colostomy [2, 12]: 1 (17) N(%); Incidence of patients with study drug-related adverse events, worst CTC grades 1–2: Hypertension [2, 12]: 1 (17) N(%); Incidence of patients with study drug-related adverse events, worst CTC grades 1–2: Nausea [2, 12]: 1 (17) N(%); Incidence of patients with study drug-related adverse events, worst CTC grades 1–2: Vomiting [2, 12]: 1 (17) N(%); Incidence of patients with study drug-related adverse events, worst CTC grade 3: Any event [2, 13]: 1 (4) N(%); Incidence of patients with study drug-related adverse events, worst CTC grade 3: Hypertension [2, 13]: 1 (4) N(%); Incidence of patients with study drug-related adverse events, worst CTC grades 1–2: Alopecia [2, 13]: 1 (4) N(%); Incidence of patients with study drug-related adverse events, worst CTC grades 1–2: Anorexia [2, 13]: 1 (4) N(%); Incidence of patients with study drug-related adverse events, worst CTC grades 1–2: Any event [2, 13]: 2 (7) N(%); VEGFR-2 tyrosine kinase activity [3]: potent inhibitor; iAUC60 for the gadolinium curve ([4]; DCE-MRI, dose levels of 300 mg BID or higher): decrease; telatinib AUC0−12 at which substantial decreases in the gadolinium iAUC60 ratio were observed ([4]; day 14 of cycle 1): about 4 mg h l^−1; total daily dose at which substantial decreases in the gadolinium iAUC60 ratio were observed ([4]; day 14 of cycle 1): ≥ 600 mg; PDGFR-β tyrosine kinase activity [5]: potent inhibitor

— paper PMC2584942, “Phase I dose escalation study of telatinib (BAY 57-9352) in patients with advanced solid tumours” (British Journal of Cancer, 2008)
